From publication PMC6006164, “Natural cyclopeptide RA-V inhibits the NF-κB signaling pathway by targeting TAK1” (Cell Death & Disease, 2018)

Columns and labels:
[1] = test system: NF-κB target genes, IL-8, MCP-1, and E-selectin; assay: Quantitative RT-PCR of TNF-α-induced NF-κB target genes; format: cell-based, Homo sapiens; conditions: HEK293T or HeLa; RA-V 24 h, 10 ng/mL TNF-α 2 h; normalized to GADPH
Experimental: Fig. 1 RA-V inhibits TNF-α- and LPS-induced activation of NF-κB. a Chemical structure of RA-V. b RA-V inhibited the NF-κB signaling pathway in a dose-dependent manner. HEK293T or HeLa cells were transfected with the 5 × κB-luciferase and pTK-Renilla reporters. Twenty-four hours after transfection, the cells were incubated with various concentrations of RA-V for 6 h, and then treated with 10 ng/mL TNF-α for 2 h before the luciferase activity assay and MTT assay. c RA-V reduced TNF-α-induced expression of NF-κB target genes. HEK293T or HeLa cells were treated with various concentrations of RA-V for 24 h and stimulated with 10 ng/mL TNF-α for 2 h. The expression of the NF-κB target genes, IL-8, MCP-1, and E-selectin was measured by quantitative RT-PCR and normalized to GADPH expression. d RA-V inhibited TNF-α-induced p65 phosphorylation, IκBα phosphorylation and IκBα degradation. […] The expression of IL-6 was measured. h RA-V inhibited LPS-induced p65 phosphorylation, IκBα phosphorylation. […] The protein expression was measured. i RA-V inhibited LPS-induced IL-6 production. […] The expression of IL-6 was measured.
The total RNA was extracted from the indicated cells using TRIzol reagent (Invitrogen) according to the manufacturer’s instructions and then was reverse transcribed. The RNA concentrations were measured spectrophotometrically with a BioPhotometer (Eppendorf). […]

[2] = test system: p65 phosphorylation, IκBα phosphorylation and IκBα degradation; assay: Western blot of TNF-α-induced NF-κB-associated proteins; format: cell-based; conditions: HEK293T or HeLa; RA-V 24 h, 10 ng/mL TNF-α 10 min
Experimental: Fig. 1 RA-V inhibits TNF-α- and LPS-induced activation of NF-κB. a Chemical structure of RA-V. b RA-V inhibited the NF-κB signaling pathway in a dose-dependent manner. HEK293T or HeLa cells were transfected with the 5 × κB-luciferase and pTK-Renilla reporters. Twenty-four hours after transfection, the cells were incubated with various concentrations of RA-V for 6 h, and then treated with 10 ng/mL TNF-α for 2 h before the luciferase activity assay and MTT assay. c RA-V reduced TNF-α-induced expression of NF-κB target genes. HEK293T or HeLa cells were treated with various concentrations of RA-V for 24 h and stimulated with 10 ng/mL TNF-α for 2 h. The expression of the NF-κB target genes, IL-8, MCP-1, and E-selectin was measured by quantitative RT-PCR and normalized to GADPH expression. d RA-V inhibited TNF-α-induced p65 phosphorylation, IκBα phosphorylation and IκBα degradation. HEK293T or HeLa cells were incubated with various concentrations of RA-V for 24 h and treated with 10 ng/mL TNF-α for 10 min. The cell lysates were prepared and subjected to western blot analysis with the indicated antibodies. e RA-V inhibited TNF-α-induced IL-8 production. […] The expression of IL-6 was measured. h RA-V inhibited LPS-induced p65 phosphorylation, IκBα phosphorylation. […] The protein expression was measured. i RA-V inhibited LPS-induced IL-6 production. […] The expression of IL-6 was measured. […]

[3] = test system: TAK1, JNK, ERK, p38, and IKKα/β phosphorylation; assay: Western blot of TAK1 and downstream kinase phosphorylation; format: cell-based; conditions: HeLa; RA-V 12 h, 10 ng/mL TNF-α 10 min
Experimental: HEK293T cells were transfected with TAK1-N or TAK1-C for 24 h. The cells lysates were incubated with CB12 or biotin and precipitated with streptavidin-coated sepharose and were analyzed by immunoblotting with Flag antibody. b The model for RA-V binding to the crystal structure of the TAK1–TAB1 fusion protein (PDB 4GS6). The blue dotted lines represent the hydrogen bonds between RA-V (green) and TAK1–TAB1. c RA-V probably binds the ATP-binding pocket of TAK1. HEK293T cells were transfected with TAK1 for 24 h, and then the cell lysates were incubated with biotin or CB12 before precipitation with streptavidin agarose. The immunoprecipitates were treated with ATP or (5Z)-7-oxozeaenol and western blotted with Flag antibody. d RA-V inhibits TAK1, JNK, ERK, p38, and IKKα/β phosphorylation. HeLa cells were incubated with various concentrations of RA-V for 12 h and then treated with 10 ng/mL TNF-α for 10 min. The cell lysates were prepared and western blotted with the indicated antibodies. Each experiment was repeated at least three times
For western blot analysis, the samples were equally subjected to sodium dodecyl sulfate polyacrylamide gel electrophoresis (SDS-PAGE) and transferred to polyvinylidene difluoride membranes (Millipore). […] The protein bands were detected with the SuperSignal West Pico Chemiluminescent Substrate (Pierce).

RA-V
TNF-α-induced expression of IL-8, MCP-1, and E-selectin [1]: dose-dependently decreased | TNF-α-induced IκBα phosphorylation, IκBα degradation, and p65 phosphorylation [2]: dose-dependent inhibitory effects | phosphorylation of TAK1 and of IKKα/β, JNK, ERK, and p38 [3]: inhibited
